Our source for the EC50 values is patent US12503436B2, “Compounds and compositions for treating conditions associated with STING activity” (NOVARTIS PHARMA AG, priority 2021, dated 2025).

pEC50: −log10 of the molar value.

This assay addresses STING (Homo sapiens, UniProt Q86WV6, G230A/H232R/R293Q/R71H). The assay can be described thus: STING reporter assay in THP1-Dual KO-IFNAR2 cells (2′3′cGAMP stimulation, luciferase reporter). Format: cell-based. The following applies: 15 μM 2′3′cGAMP stimulation, 24 h, read-out: Pharmaron, THP1_IFNAR2 STING 24 h Luci Normalized: GeoMean EC50. The procedure, abridged: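 EC50 from secreted luciferase (QUANTI-Luc Plus luminescence of supernatant) after 24 h at 37 °C, 5% CO2. Cells: THP1-Dual KO-IFNAR2, treated with compound (0.0017-100 μM final) plus lipofected 2′3′cGAMP at 15 μM final.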

As usually defined, the pEC50 is the negative decadic logarithm of the EC50, by convention in mol/L.

STING, sequence (Q86WV6 whole entry R71H/G230A/H232R/R293Q): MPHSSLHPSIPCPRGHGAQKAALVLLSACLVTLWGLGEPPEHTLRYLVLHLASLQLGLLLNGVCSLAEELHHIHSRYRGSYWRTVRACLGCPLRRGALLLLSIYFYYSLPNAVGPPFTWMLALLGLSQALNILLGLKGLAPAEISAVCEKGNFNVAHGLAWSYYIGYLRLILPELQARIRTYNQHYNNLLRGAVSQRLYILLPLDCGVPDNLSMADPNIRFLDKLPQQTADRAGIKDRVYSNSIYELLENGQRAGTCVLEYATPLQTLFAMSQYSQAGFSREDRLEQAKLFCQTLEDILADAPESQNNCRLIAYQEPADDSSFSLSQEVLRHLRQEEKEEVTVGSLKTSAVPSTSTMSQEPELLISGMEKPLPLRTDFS

For the compound `CO[C@H]1C[C@H](C(=O)Nc2c[nH]c3ccc(CCOc4ccc(C(F)(F)F)cc4)cc23)C1` [Compound 220, trans-3-methoxy-N-(5-(2-(4-(trifluoromethyl)phenoxy)ethyl)-1H-indol-3-yl)cyclobutane-1-carboxamide], the pEC50 was 6.70 to 7.40. The value for `CC(=O)Nc1c[nH]c2ccc(CCOc3ccccc3OCC(F)(F)F)cc12` [Compound 547, N-(5-(2-(2-(2,2,2-trifluoroethoxy)phenoxy)ethyl)-1H-indol-3-yl)acetamide] was 6.00 to 6.70; that for `O=C(Nc1c[nH]c2ccc(O[C@H]3C[C@H](c4ccc(C(F)(F)F)cc4)C3)cc12)C1CN(CCC(F)(F)F)C1` [Compound 227, N-(5-(trans-3-(4-(trifluoromethyl)phenyl)cyclobutoxy)-1H-indol-3-yl)-1-(3,3,3-trifluoropropyl)azetidine-3-carboxamide] was 6.70 to 7.40.

For `CC(=O)Nc1c[nH]c2ccc(Oc3ccc(C(F)(F)F)cc3)cc12` [Compound 124, N-(5-(4-(trifluoromethyl)phenoxy)-1H-indol-3-yl)acetamide], the pEC50 was 5.30 to 6.00. `C[C@]1(C(=O)Nc2c[nH]c3ccc(OCCc4ccc(C(F)(F)F)cc4)cc23)C[C@H](O)C1` [Compound 446, trans-3-hydroxy-1-methyl-N-(5-(4-(trifluoromethyl)phenethoxy)-1H-indol-3-yl)cyclobutane-1-carboxamide]: the negative-log EC50 (pEC50) was 6.70 to 7.40.

For the compound `CC(=O)Nc1c[nH]c2ccc(COCc3ccc(Cl)c(Cl)c3)cc12` [Compound 101, N-(5-(((3,4-dichlorobenzyl)oxy)methyl)-1H-indol-3-yl)acetamide], the pEC50 was 6.00 to 6.70.

With `CC(C)(C)C(=O)Nc1c[nH]c2ccc(O[C@H]3C[C@@H](c4ccc(C(F)(F)F)cc4)C3)cc12` [Compound 354, N-(5-(cis-3-(4-(trifluoromethyl)phenyl)cyclobutoxy)-1H-indol-3-yl)pivalamide], the pEC50 is 6.00 to 6.70.

In the case of `CC(=O)Nc1c[nH]c2ccc(COCc3ccc(C(F)(F)F)cc3)cc12` [Compound 111, N-(5-(((4-(trifluoromethyl)benzyl)oxy)methyl)-1H-indol-3-yl)acetamide], the pEC50 is 6.70 to 7.40. For the compound `O=C(Nc1c[nH]c2ccc(OCCc3ccc(C(F)(F)F)cc3)cc12)C1CC(Cl)C1` (centres unmarked) [Compound 217, 3-chloro-N-(5-(4-(trifluoromethyl)phenethoxy)-1H-indol-3-yl)cyclobutane-1-carboxamide], the pEC50 was 6.70 to 7.40. As for `CC1(C)CC(C(=O)Nc2c[nH]c3ccc(CCOc4ccc(C(F)(F)F)cc4)cc23)C1` [Compound 348, 3,3-dimethyl-N-(5-(2-(4-(trifluoromethyl)phenoxy)ethyl)-1H-indol-3-yl)cyclobutane-1-carboxamide], the figure is 6.00 to 6.70. In the case of `O=C(Nc1c[nH]c2ccc(OCCc3ccc(C(F)(F)F)cc3)cc12)[C@H]1C[C@@H](O)C1` [Compound 190, (1S,3S)-3-hydroxy-N-(5-(4-(trifluoromethyl)phenethoxy)-1H-indol-3-yl)cyclobutanecarboxamide], the pEC50 was 6.00 to 6.70. The value for `O=C(COCC(F)(F)F)Nc1c[nH]c2ccc(OCC[C@@H]3C[C@@H]4CN(CC(F)(F)F)C[C@@H]4C3)cc12` [Compound 434, 2-(2,2,2-trifluoroethoxy)-N-(5-(2-((3aR,5r,6aS)-2-(2,2,2-trifluoroethyl)octahydrocyclopenta[c]pyrrol-5-yl)ethoxy)-1H-indol-3-yl)acetamide] was 6.70 to 7.40; that for `COCC(=O)Nc1c[nH]c2ccc(OCCC3CCN(CC(F)(F)F)CC3)cc12` [Compound 117, 2-methoxy-N-(5-(2-(1-(2,2,2-trifluoroethyl)piperidin-4-yl)ethoxy)-1H-indol-3-yl)acetamide] was 6.00 to 6.70; that for `C[C@H]1C[C@H](C(=O)Nc2c[nH]c3ccc(OCc4ccc(C(F)(F)F)cc4)cc23)C1` [Compound 320, trans-3-methyl-N-(5-((4-(trifluoromethyl)benzyl)oxy)-1H-indol-3-yl)cyclobutane-1-carboxamide] was 6.00 to 6.70.
